In publication PMC5078989, “Targeted inhibition of the COP9 signalosome for treatment of cancer” (Nature Communications, 2016):

System: panel of cancer cell lines
Experiment: Cell viability (CellTiter-Glo) dose-response across cancer cell line panel;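 for EC50: after 72 h compound incubation with CellTiter-Glo ATP readout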
Assay type: cell-based, human
Details: for EC50: Homo sapiens
Source text: Next, we explored the effect of CSN5 inhibition on the viability of cancer cells. To obtain a comprehensive picture, we generated dose–response curves with a CSN5 inhibitor across more than 500 cancer cell lines in a previously described standardized setting[47] (Supplementary Data 1).
A standardized CellTiter-Glo Assay (Promega #G7570) based on the quantification of ATP was applied according to the manufacturer's protocol to measure the amount of viable cells in culture. In brief, cells were seeded into 384-well plates at optimal density for each cell line. After 4 h, compounds were added at different concentrations in growth medium and incubated for another 72 h in a humidifying chamber at 37 °C and 5% CO2. […] EC50 values were calculated from the plot of percentage of inhibition versus inhibitor concentration using the nonlinear regression analysis software Origin 7.5SR6 (OriginLab Corp.).

SMILES: CC(C)C[C@H](NC(=O)[C@H](Cc1ccccc1)NC(=O)c1cnccn1)B(O)O [Bortezomib]
- AMAX (22Rv1): -94.313
- AMAX (59M): -95.8554
- AMAX (769-P): -95.8011
- AMAX (786-O): -95.6334
- AMAX (A4/Fuk): -96.8168
- AMAX (A101D): -96.1689
- AMAX (BV-173): -96.2276
- AMAX (CAL-54): -95.8702
- AMAX (CAL-78): -96.6244
- AMAX (CAS-1): -94.9696
- AMAX (CMK-11-5): -95.7224
- AMAX (CML-T1): -97.037
- AMAX (COLO 668): -97.3658
- AMAX (COR-L88): -87.7017
- AMAX (COR-L279): -96.4332
- AMAX (COV318): -92.9911
- AMAX (COV504): -89.7599
- AMAX (DK-MG): -95.0625
- AMAX (DMS 273): -96.4842
- AMAX (DOHH-2): -97.4407
- AMAX (EM-2): -96.8249
- AMAX (GCIY): -97.1531
- AMAX (GR-M): -97.3342
- AMAX (HEC-6): -96.6882
- AMAX (HEC-50B): -86.5583
- AMAX (HEC-151): -96.6048
- AMAX (HEC-265): -95.5903
- AMAX (HGC-27): -96.7322
- AMAX (HLC-1): -96.4119
- AMAX (HMC-1-8): -96.1255
- AMAX (HTK-): -96.3221
- EC50 (8-MG-BA, cell line 8-MG-BA): 18.9 nM
- EC50 (22Rv1, 22Rv1): 14.7 nM
- EC50 (59M): 13.5 nM
- EC50 697: 9 nM
- EC50 (769-P): 8.84 nM
- EC50 (786-0, 786-O): 8.79 nM
- EC50 (1321-N1, 1321N1): 12 nM
- EC50 (8305C): 7.18 nM
- EC50 (23132/87): 7.39 nM
- EC50 (A4/Fuk): 2.23 nM
- EC50 (A101D): 3.29 nM
- EC50 (A 172, A172): 8.05 nM
- EC50 (A204, A-204): 5.28 nM
- EC50 (A253, A-253): 9.94 nM
- EC50 (A549, A549): 30.8 nM
- EC50 (A673, A-673): 5.83 nM
- EC50 (A2058, A2058): 19.4 nM
- EC50 (A2780, A2780): 10.7 nM
- EC50 (A-375, A-375): 12.1 nM
- EC50 (ABC-1, ABC-1): 3.02 nM
- EC50 (ACC-MESO-1, ACC-MESO-1): 23.6 nM
- EC50 (ACHN): 7.43 nM
- EC50 (AMO1, AMO-1): 2.18 nM
- EC50 (AN3-CA, cell line AN3 CA): 15.5 nM
- EC50 (AU565, AU565): 6.2 nM
- EC50 (BFTC-909, BFTC-909): 20.9 nM
- EC50 (BHY): 7.83 nM
- EC50 (BICR 6): 18.4 nM
- EC50 (BICR 16): 38.8 nM
- EC50 (BICR 22): 12.3 nM
- EC50 (BL-41, BL-41): 1.54 nM
- EC50 (BT-20, BT-20): 26.8 nM
- EC50 (BT-549, BT-549): 5.76 nM
- EC50 (BV-173, BV-173): 8.13 nM
- EC50 (BXPC-3, BxPC-3): 15.1 nM
- EC50 (C32, C32): 13 nM
- EC50 (CAKI-1, Caki-1): 12 nM
- EC50 (CAKI-2, cell line Caki-2): 22.8 nM
- EC50 (CAL-29): 16.3 nM
- EC50 (CAL-51, CAL-51): 17.9 nM
- EC50 (CAL-54, CAL-54): 9.06 nM
- EC50 (CAL-78): 7.82 nM
- EC50 (CAL-120, CAL-120): 7.23 nM
- EC50 (CAMA-1, CAMA-1): 8.61 nM
- EC50 (CAPAN-1, Capan-1): 9.26 nM
- EC50 (CAS-1): 16.6 nM
- EC50 (CCK-81): 9.52 nM
- EC50 (CCRF-CEM): 3.12 nM
- EC50 (CFPAC-1, CFPAC-1): 6.34 nM
- EC50 (CHL-1, CHL-1): 9.51 nM
- EC50 (CHP-212, cell line CHP-212): 5.04 nM
- EC50 (CMK): 3.98 nM
- EC50 (CMK-11-5, CMK-11-5): 6.27 nM
- EC50 (CML-T1, CML-T1): 3.65 nM
- EC50 (COLO 205, COLO 205): 35.7 nM
- EC50 (COLO 320, COLO-320): 19 nM
- EC50 (COLO 699, COLO-699): 9.17 nM
- EC50 (COLO 704, COLO-704): 5.98 nM
- EC50 (COLO 775): 5.24 nM
- EC50 (COLO 792): 5.11 nM
- EC50 (COLO-668, COLO 668): 13.2 nM
- EC50 (COLO-680N): 12.3 nM
- EC50 (COLO-741, COLO 741): 11 nM
- EC50 (COLO-800, cell line COLO-800): 10.1 nM
- EC50 (COLO-829, COLO 829): 16.6 nM
- EC50 (COR-L23, cell line COR-L23): 17.8 nM
- EC50 (COR-L47, COR-L47): 9.05 nM
- EC50 (COR-L88, COR-L88): 29.3 nM
- EC50 (COR-L279, COR-L279): 7.34 nM
- EC50 (COV318, COV318): 6.86 nM
- EC50 (COV504, COV504): 7.72 nM
- EC50 (COV644): 6.9 nM
- EC50 (Calu-1, Calu-1): 17.6 nM
- EC50 (Calu-3, Calu-3): 4.34 nM
- EC50 (Calu-6, Calu-6): 17.8 nM
- EC50 (Caov-3, Caov-3): 7.49 nM
- EC50 (Ci-1, CI-1): 4.61 nM
- EC50 (DAN-G): 8.14 nM
- EC50 (DB): 3.38 nM
- EC50 (DBTRG-05MG, cell line DBTRG-05MG): 34.7 nM
- EC50 (DK-MG): 5.7 nM
- EC50 (DLD-1, DLD-1): 6.51 nM
- EC50 (DMS-79, cell line DMS 79): 13.6 nM
- EC50 (DMS-114, DMS 114): 14 nM
- EC50 (DMS-273, DMS 273): 6.64 nM
- EC50 (DOHH-2, DOHH-2): 4.61 nM
- EC50 (DU-145, DU 145): 17.5 nM
- EC50 (DU-4475, DU4475): 5.05 nM
- EC50 (DV-90, DV-90): 22.4 nM
- EC50 (Daoy): 6.56 nM
- EC50 (Detroit 562, cell line Detroit 562): 11.4 nM
- EC50 (EBC-1, EBC-1): 8.25 nM
- EC50 (EFM-19, EFM-19): 22.5 nM
- EC50 (EFM-192A): 25.5 nM
- EC50 (EM-2, EM-2): 1.63 nM
- EC50 (EN): 15 nM
- EC50 (EOL1, EOL-1): 6.8 nM
- EC50 (ES-2, ES-2): 10.4 nM
- EC50 (ESS-1, ESS-1): 8.62 nM
- EC50 (FU-OV-1): 12.5 nM
- EC50 (FaDu, cell line FaDu): 16.5 nM
- EC50 (G-361, G-361): 2.83 nM
- EC50 (G-401, G-401): 8.69 nM
- EC50 (G-402, G-402): 5.03 nM
- EC50 (GA-10, cell line GA-10): 15.5 nM
- EC50 (GAMG, cell line GAMG): 17.7 nM
- EC50 (GCIY): 6.77 nM
- EC50 (GMS-10, cell line GMS-10): 11.2 nM
- EC50 (GOS-3): 6.46 nM
- EC50 (GP2d): 14.7 nM
- EC50 (GR-M): 7.08 nM
- EC50 (Granta-519, GRANTA-519): 3.79 nM
- EC50 (HARA): 11.9 nM
- EC50 (HCC15, HCC-15): 23.1 nM
- EC50 (HCC38, HCC38): 3.99 nM
- EC50 (HCC44, HCC-44): 19.7 nM
- EC50 (HCC70, HCC70): 7.14 nM
- EC50 (HCC95, HCC-95): 14.1 nM
- EC50 (HCC366, HCC-366): 11.1 nM
- EC50 (HCC827, HCC827): 8.42 nM
- EC50 (HCC1143, HCC1143): 15.1 nM
- EC50 (HCC1171, HCC-1171): 27.1 nM
- EC50 (HCC1187, HCC1187): 6.22 nM
- EC50 (HCC1395, HCC1395): 17.5 nM
- EC50 (HCC1419, HCC1419): 28.6 nM
- EC50 (HCC1428, HCC1428): 396 nM
